Laboratory results reported in patent publication US12195427B2, “MASP-2 inhibitors and methods of use” (priority 2018, dated 2025).
Where a name gives a salt, the structure may show the parent alone.

Target: MASP-2 CCP2-SP (Homo sapiens (Human), UniProt O00187)
Test: MASP-2 co-crystallization, X-ray crystallography and structure analysis (H-bonds, van der Waals contacts);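 for Ligand-pharmacophore element distance, pharmacophore element C2: distance from averaged pharmacophore element to bound ligand; missing value means element absent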;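 for Ligand-pharmacophore element distance, pharmacophore element C3: distance from averaged pharmacophore element to bound ligand; missing value means element absent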;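 for Ligand-pharmacophore element distance, pharmacophore element C4: distance from averaged pharmacophore element to bound ligand; missing value means element absent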;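 for Ligand-pharmacophore element distance, pharmacophore element C5: distance from averaged pharmacophore element to bound ligand; missing value means element absent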
Set-up: van der Waals contact distance, MASP-2 HIS 483 atom CD2 / van der Waals contact distance, MASP-2 HIS 483 atom NE2 / van der Waals contact distance, SER 654 C to compound atom / van der Waals contact distance, SER 654 O to compound atom / van der Waals contact distance, TRP 655 C to compound atom / van der Waals contact distance, MASP-2 GLY 528 atom CA / van der Waals contact distance TRP 655 atom CZ3 / van der Waals contact distance TRP 655 atom N / van der Waals contact distance TRP 655 atom CE3 / van der Waals contact distance GLY 656 atom C / van der Waals contact distance GLY 656 atom CA / van der Waals contact distance GLY 656 atom O / van der Waals contact distance, MASP-2 TYR 607 atom CD1 / van der Waals contact distance, MASP-2 PRO 606 atom O / d(C3,CA1) / d(CA1,N1)2 / d(H4,O1) / d(H4,O2) / d(O1,O2) / d(CA1,O2) / d(CA6,O1) / d(CA6,O2) / d(CA1,C5) / d(O2,H3) / d(N2,C2) / d(CA5,N2) / d(N2,C4) / d(N2,C6) / d(N2,CA3) / d(N2,O3) / d(O4,H2): unit not given beside the values
Details: for H-bond distance to MASP-2 ASP 627 atom OD2: ASP 627 OD2; for H-bond distance to MASP-2 GLY 656 atom N: GLY 656 N; for H-bond distance to MASP-2 GLY 656 atom O: GLY 656 O; for H-bond distance to MASP-2 SER 654 atom O: SER 654 O; for H-bond distance to MASP-2 SER 657 atom O: SER 657 O; for van der Waals contact distance TRP 655 atom CE3 / van der Waals contact distance TRP 655 atom CZ3 / van der Waals contact distance TRP 655 atom N: Table A2-13; for van der Waals contact distance TRP 655 atom CE3: MASP-2 TRP 655 CE3, compound atom in line below; for van der Waals contact distance TRP 655 atom CZ3: MASP-2 TRP 655 CZ3; for van der Waals contact distance TRP 655 atom N: MASP-2 TRP 655 N; for Ligand-pharmacophore element distance, pharmacophore element C2 / Ligand-pharmacophore element distance, pharmacophore element C3 / Ligand-pharmacophore element distance, pharmacophore element C4 / Ligand-pharmacophore element distance, pharmacophore element C5 / Ligand-pharmacophore element distance, pharmacophore element C6 / Ligand-pharmacophore element distance, pharmacophore element C7 / Ligand-pharmacophore element distance, pharmacophore element CA1 / Ligand-pharmacophore element distance, pharmacophore element CA2 / Ligand-pharmacophore element distance, pharmacophore element CA3 / Ligand-pharmacophore element distance, pharmacophore element CA4 / Ligand-pharmacophore element distance, pharmacophore element CA5 / Ligand-pharmacophore element distance, pharmacophore element CA6: Table A4-1; for d(N2,CA2) / d(O2,H3) / d(O2,N2) / d(N2,C2): Table A5-2 pharmacophore distance, S3/S4 region; for a(N1, CA1, O1) b): Methyl-amino-pyridine compounds; for a(O1, O2, H3) / a(O1, O2, N2) / a(O2, N2, CA2) / a(O2, N2, C2): Table A6-2 pharmacophore angle
Outline: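 First, CCP2-SP constructs with or without a 6His tag are produced in E. coli. Crystals are then soaked once or twice with inhibitor, cryoprotected in 20% glycerol or frozen directly, and diffracted at synchrotron beamlines. Phasing uses molecular replacement with parts of 1Q3X.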

[1] = Table A5-1 pharmacophore: distance between elements, S2/S1 region
[2] = Table A7-1, between pharmacophore elements of the bound compound
[3] = Table A7-2, between pharmacophore elements of the bound compound

Sequence of MASP-2 CCP2-SP (O00187 445-686): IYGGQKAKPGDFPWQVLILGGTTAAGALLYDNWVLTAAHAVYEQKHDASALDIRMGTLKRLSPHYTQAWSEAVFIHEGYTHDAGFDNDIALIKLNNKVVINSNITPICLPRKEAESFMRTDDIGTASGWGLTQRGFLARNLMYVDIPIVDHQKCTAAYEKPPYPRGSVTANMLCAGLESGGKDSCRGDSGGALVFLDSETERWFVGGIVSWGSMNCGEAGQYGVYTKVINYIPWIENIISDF
Sequence of MASP-2 CCP2-SP (O00187 364-432 partner): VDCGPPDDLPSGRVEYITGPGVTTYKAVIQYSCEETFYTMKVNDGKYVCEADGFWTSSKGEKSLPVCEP

Cc1nc(N)ccc1CNC(=O)[C@H](C)NC(=O)[C@H]1C[C@H](Cc2cccc(-c3ccccc3)c2)CN1 [compound 1406, (2R,4S)-4-([1,1′-Biphenyl]-3-ylmethyl)-N—((S)-1-(((6-amino-2-methylpyridin-3-yl)methyl)amino)-1-oxopropan-2-yl)pyrrolidine-2-carboxamide Dihydrochloric acid]
H-bond distance to MASP-2 ASP 627 atom OD2 (Table A1 (H-Bonds)): 3.22
H-bond distance to MASP-2 GLY 656 atom N (Table A1 (H-Bonds)): 3.28
H-bond distance to MASP-2 GLY 656 atom O (Table A1 (H-Bonds)): 2.76
H-bond distance to MASP-2 SER 654 atom O (Table A1 (H-Bonds)): 2.96
H-bond distance to MASP-2 SER 657 atom O (Table A1 (H-Bonds)): 2.78
van der Waals contact distance, MASP-2 amino acid atom to compound atom (Table A2): 3.74
van der Waals contact distance, MASP-2 ASP 526 atom C (Table A2-1): 3.55
van der Waals contact distance, MASP-2 ASP 526 atom CA (Table A2-1): 3.89
van der Waals contact distance, MASP-2 ASP 526 atom O (Table A2-1): 3.69
van der Waals contact distance, MASP-2 HIS 483 atom CD2 (Table A2-1): 3.7
van der Waals contact distance, MASP-2 HIS 483 atom NE2 (Table A2-1): 3.67
van der Waals contact distance, MASP-2 ALA 527 atom C (Table A2-2): 3.68
van der Waals contact distance, MASP-2 ALA 527 atom CA (Table A2-2): 3.83
van der Waals contact distance, MASP-2 amino acid atom to compound atom (Table A2-7: SER 628 (CB, O, OG)): 3.76
van der Waals contact distance, SER 654 C to compound atom (Table A2-11): 3.59
van der Waals contact distance, VAL 653 CG1 to compound atom (Table A2-11): 3.27
van der Waals contact distance TRP 655 atom CE3: 3.7
van der Waals contact distance TRP 655 atom CZ3: 3.51
van der Waals contact distance TRP 655 atom N: 3.85
Ligand-pharmacophore element distance, pharmacophore element C2: 0
Ligand-pharmacophore element distance, pharmacophore element C3: 0.12
Ligand-pharmacophore element distance, pharmacophore element C4: 0
Ligand-pharmacophore element distance, pharmacophore element C5: 0
Ligand-pharmacophore element distance, pharmacophore element C6: 0
Ligand-pharmacophore element distance, pharmacophore element C7: 0
Ligand-pharmacophore element distance, pharmacophore element CA1: 0.56
Ligand-pharmacophore element distance, pharmacophore element CA2: 0.42
Ligand-pharmacophore element distance, pharmacophore element CA3: 0
Ligand-pharmacophore element distance, pharmacophore element CA4: 1.59
Ligand-pharmacophore element distance, pharmacophore element CA5: 0
Ligand-pharmacophore element distance, pharmacophore element CA6: 0
d(C3,CA1) [1]: 2.86
d(CA1,N1)2 [1]: 1.38
d(CA1,O1) [1]: 4.36
d(CA1,O2) [1]: 4.00
d(H4,O1) [1]: 4.35
d(H4,O2) [1]: 3.89
d(O1,O2) [1]: 3.29
d(N2,CA2): 5.98
d(O2,H3): 4.44
d(O2,N2): 2.64
a(C3, CA1, O1) (Table A6-1 pharmacophore angle): 149.47
a(CA1, O1, O2) (Table A6-1 pharmacophore angle): 107.31
a(O1, O2, H4) (Table A6-1 pharmacophore angle): 133.28
a(N1, CA1, O1) b) (Table A6-1 pharmacophore angle): 173.92
a(O1, O2, H3): 147.38
a(O1, O2, N2): 140.17
a(O2, N2, CA2): 156.30
Pharmacophore torsion angle a(C3, CA1, O1, H4) [2]: 23.93
Pharmacophore torsion angle a(H4, O1, O2, H3) [2]: 50.99
Pharmacophore torsion angle a(H4, O1, O2, N2) [2]: 135.75
Pharmacophore torsion angle a(N1, CA1, O1, H4) [2]: −2.51
Pharmacophore torsion angle a(O1, H4, O2, CA1) [2]: −83.05
Pharmacophore torsion angle a(O1, O2, N2, CA2) [3]: 127.54
Pharmacophore torsion angle a(O1, O2, N2, CA4) [3]: 102.90

Cc1nc(N)ccc1CNC(=O)[C@H](C)NC(=O)[C@H]1C[C@@H](c2ccccc2)CCN1CCC(=O)O [compound 1411, 3-((2R,4S)-2-(((S)-1-(((6-Amino-2-methylpyridin-3-yl)methyl)amino)-1-oxopropan-2-yl)carbamoyl)-4-phenylpiperidin-1-yl)propanoic acid Trifluoroacetate salt]
H-bond distance to MASP-2 ARG 630 atom NE (Table A1 (H-Bonds), ARG 630 NE): 2.66
H-bond distance to MASP-2 ASP 627 atom OD2 (Table A1 (H-Bonds)): 3.17
H-bond distance to MASP-2 GLY 656 atom N (Table A1 (H-Bonds)): 3.07
H-bond distance to MASP-2 SER 628 atom O (Table A1 (H-Bonds), SER 628 O): 3.2
H-bond distance to MASP-2 SER 654 atom O (Table A1 (H-Bonds)): 3.06
H-bond distance to MASP-2 SER 657 atom O (Table A1 (H-Bonds)): 2.61
van der Waals contact distance, MASP-2 amino acid atom to compound atom (Table A2): 3.8
van der Waals contact distance, MASP-2 HIS 483 atom CD2 (Table A2-1): 3.51
van der Waals contact distance, MASP-2 HIS 483 atom NE2 (Table A2-1): 3.46
van der Waals contact distance, MASP-2 GLY 528 atom CA (Table A2-2): 3.85
van der Waals contact distance, MASP-2 PHE 529 atom CE1 (Table A2-3): 3.69
van der Waals contact distance, VAL 653 CG1 to compound atom (Table A2-11): 3.52
van der Waals contact distance TRP 655 atom CE3: 3.6
van der Waals contact distance TRP 655 atom CZ3: 3.57
Ligand-pharmacophore element distance, pharmacophore element C2: 0.42
Ligand-pharmacophore element distance, pharmacophore element C3: 0.32
Ligand-pharmacophore element distance, pharmacophore element C4: 0
Ligand-pharmacophore element distance, pharmacophore element C5: 0
Ligand-pharmacophore element distance, pharmacophore element C6: 0
Ligand-pharmacophore element distance, pharmacophore element C7: 0
Ligand-pharmacophore element distance, pharmacophore element CA1: 0.71
Ligand-pharmacophore element distance, pharmacophore element CA2: 0.52
Ligand-pharmacophore element distance, pharmacophore element CA3: 0
Ligand-pharmacophore element distance, pharmacophore element CA4: 0
Ligand-pharmacophore element distance, pharmacophore element CA5: 0
Ligand-pharmacophore element distance, pharmacophore element CA6: 0
d(C3,CA1) [1]: 2.87
d(CA1,N1)2 [1]: 1.34
d(CA1,O1) [1]: 4.37
d(CA1,O2) [1]: 4.05
d(H4,O1) [1]: 4.34
d(H4,O2) [1]: 3.90
d(O1,O2) [1]: 3.50
d(N2,C2): 1.46
d(N2,CA2): 5.72
d(O2,H3): 4.13
d(O2,N2): 2.68
a(C3, CA1, O1) (Table A6-1 pharmacophore angle): 149.02
a(CA1, O1, O2) (Table A6-1 pharmacophore angle): 109.85
a(O1, O2, H4) (Table A6-1 pharmacophore angle): 130.04
a(N1, CA1, O1) b) (Table A6-1 pharmacophore angle): 173.43
a(O1, O2, H3): 142.75
a(O1, O2, N2): 140.47
a(O2, N2, C2): 130.32
a(O2, N2, CA2): 155.94
Pharmacophore torsion angle a(C3, CA1, O1, H4) [2]: 24.51
Pharmacophore torsion angle a(H4, O1, O2, H3) [2]: 55.16
Pharmacophore torsion angle a(H4, O1, O2, N2) [2]: 137.13
Pharmacophore torsion angle a(N1, CA1, O1, H4) [2]: −2.21
Pharmacophore torsion angle a(O1, H4, O2, CA1) [2]: −82.11
Pharmacophore torsion angle a(O1, O2, N2, C2) [2]: 117.46
Pharmacophore torsion angle a(O1, O2, N2, CA2) [3]: 127.52

C[C@H](NC(=O)[C@H]1C[C@@H](c2ccccc2)CCN1)C(=O)NCc1cnc2[nH]cc(Cl)c2c1 [compound 1433, (2R,4S)—N—((S)-1-(((3-Chloro-1H-pyrrolo[2,3-b]pyridin-5-yl)methyl)amino)-1-oxopropan-2-yl)-4-phenylpiperidine-2-carboxamide]
H-bond distance to MASP-2 GLY 656 atom N (Table A1 (H-Bonds)): 3.13
H-bond distance to MASP-2 GLY 656 atom O (Table A1 (H-Bonds)): 2.75
H-bond distance to MASP-2 SER 654 atom O (Table A1 (H-Bonds)): 2.89
van der Waals contact distance, MASP-2 HIS 483 atom CD2 (Table A2-1): 3.73
van der Waals contact distance, MASP-2 HIS 483 atom NE2 (Table A2-1): 3.76
van der Waals contact distance, MASP-2 PHE 529 atom CE1 (Table A2-3): 3.77
van der Waals contact distance, MASP-2 PHE 529 atom CE2 (Table A2-3): 3.82
van der Waals contact distance, MASP-2 amino acid atom to compound atom (Table A2-5: TYR 607 (CE1, CE2, OH), PRO 608 (CD, CG), SER 611 (CA)): 3.73
van der Waals contact distance, MASP-2 amino acid atom to compound atom (Table A2-9 second part, ARG 630, AA atoms N, NE, NH1): 3.49
van der Waals contact distance, VAL 653 CG1 to compound atom (Table A2-11): 3.71
van der Waals contact distance TRP 655 atom CE3: 3.59
van der Waals contact distance TRP 655 atom CZ3: 3.73
van der Waals contact distance TRP 655 atom N: 3.68
Ligand-pharmacophore element distance, pharmacophore element C2: 0.26
Ligand-pharmacophore element distance, pharmacophore element C3: 0
Ligand-pharmacophore element distance, pharmacophore element C4: 0
Ligand-pharmacophore element distance, pharmacophore element C5: 0.2
Ligand-pharmacophore element distance, pharmacophore element C6: 0
Ligand-pharmacophore element distance, pharmacophore element C7: 0
Ligand-pharmacophore element distance, pharmacophore element CA1: 0.98
Ligand-pharmacophore element distance, pharmacophore element CA2: 0.18
Ligand-pharmacophore element distance, pharmacophore element CA3: 0
Ligand-pharmacophore element distance, pharmacophore element CA4: 0
Ligand-pharmacophore element distance, pharmacophore element CA5: 0
Ligand-pharmacophore element distance, pharmacophore element CA6: 0
d(CA1,C5) [1]: 3.47
d(CA1,O1) [1]: 5.49
d(CA1,O2) [1]: 4.76
d(CA1,O4) [1]: 1.77
d(H4,O1) [1]: 3.16
d(H4,O2) [1]: 3.59
d(O1,O2) [1]: 3.46
d(N2,C2): 1.51
d(N2,CA2): 5.79
d(O2,H3): 2.89
d(O2,N2): 2.65
a(C5, CA1, O1) (Table A6-1 pharmacophore angle): 151.25
a(CA1, O1, O2) (Table A6-1 pharmacophore angle): 97.80
a(O1, CA1, O4) (Table A6-1 pharmacophore angle): 65.77
a(O1, O2, H4) (Table A6-1 pharmacophore angle): 118.66
a(O1, O2, H3): 135.90
a(O1, O2, N2): 141.60
a(O2, N2, C2): 129.89
a(O2, N2, CA2): 155.75
Pharmacophore torsion angle a(C5, CA1, O1, H4) [2]: 6.40
Pharmacophore torsion angle a(H4, O1, O2, H3) [2]: 109.26
Pharmacophore torsion angle a(H4, O1, O2, N2) [2]: −171.69
Pharmacophore torsion angle a(O1, H4, O2, CA1) [2]: −96.26
Pharmacophore torsion angle a(O1, O2, N2, C2) [2]: 118.46
Pharmacophore torsion angle a(O1, O2, N2, CA2) [3]: 127.94
